The record followed here is patent publication US20240383915A1, “OXAZEPINE COMPOUNDS AND USES THEREOF IN THE TREATMENT OF CANCER” (Genentech, Inc., priority 2021, published 2024).

The structures appear in SMILES notation.

The target of one experiment is KRas (Homo sapiens (Human), UniProt P01116). The experiment is described as follows: KRas GDP HTRF (BODIPY-GDP exchange TR-FRET). The format is biochemical. An outline of the steps:
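Inhibition of SOS1-mediated exchange of BODIPY-GDP on KRAS G12D, started with 3 nM recombinant human SOS1 and 300 nM BODIPY-GDP and read after 60 min. TR-FRET excitation 337 nm, ratio 520/490 nm ×10,000. IC50 from 4-parameter Hill fit of normalized data.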

The next experiment relates to SW480 cells. The experiment is described as follows: SW480 proliferation assay. The format is cell-based. The settings on record: Homo sapiens, SW480, SW480; read-out: SW480 Prolif IC50 (G12V).
A further experiment has as its target KRas(G12V) (Homo sapiens (Human), UniProt P01116, G12V). Kind of experiment: KRas(G12V) GDP HTRF (BODIPY-GDP exchange TR-FRET). In kind it is biochemical. For orientation: Time-resolved FRET reads energy transfer from a long-lived donor to a nearby acceptor.
The subject of a further experiment is PC-9 cells. The experiment is described as follows: PC9 proliferation assay. The format is cell-based, human. The settings on record: Homo sapiens, PC-9, PC9; read-out: PC9 Prolif IC50 (G12V).

Chain of KRas (P01116-2 other isoform, or with tags, fused parts or gaps): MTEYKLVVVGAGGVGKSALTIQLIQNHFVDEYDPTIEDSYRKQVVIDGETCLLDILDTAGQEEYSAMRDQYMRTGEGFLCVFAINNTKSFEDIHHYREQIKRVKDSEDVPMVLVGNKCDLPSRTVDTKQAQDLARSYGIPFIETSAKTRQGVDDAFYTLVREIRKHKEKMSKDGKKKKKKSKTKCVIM
Chain of KRas(G12V) (P01116-2 other isoform, or with tags, fused parts or gaps G12V): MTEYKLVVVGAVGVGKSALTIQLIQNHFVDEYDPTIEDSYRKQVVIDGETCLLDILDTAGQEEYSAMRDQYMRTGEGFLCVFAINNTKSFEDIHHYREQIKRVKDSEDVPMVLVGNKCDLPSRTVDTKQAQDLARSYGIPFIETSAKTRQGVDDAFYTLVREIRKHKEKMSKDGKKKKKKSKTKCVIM

By IC50 is commonly meant the concentration that inhibits the measured activity by half. Consider `Cc1cc(N)nc(-c2c(Cl)c3c4c(nc(OC[C@@]56CCCN5C[C@H](F)C6)nc4c2F)N(C)CCO3)c1C(F)(F)F` (single isomer, unassigned) [Example 41a], for which the half-inhibitory concentration (IC50) at KRas was determined as 11 nM; in the experiment with SW480 cells, 1000 nM; against KRas(G12V) it was 1.8 nM; in the experiment on PC-9 cells, 3800 nM.

As to `Cc1cc(N)nc(-c2c(Cl)c3c4c(nc(OCC56COC(C5)C6)nc4c2F)N([C@H](C)c2cccnc2N)CCO3)c1C(F)(F)F` [Example 141, 6-((R)-2-((2-oxabicyclo[2.1.1]hexan-4-yl)methoxy)-4-((R)-1-(2-aminopyridin-3-yl)ethyl)-8-chloro-10-fluoro-5,6-dihydro-4H-[1,4]oxazepino[5,6,7-de]quinazolin-9-yl)-4-methyl-5-(trifluoromethyl)pyridin-2-amine], the IC50 stood at 0.77 nM against KRas, 76 nM with SW480 cells, 0.24 nM against KRas(G12V) and 8100 nM in the experiment with PC-9 cells.

Turning to `Cc1cc(N)nc(-c2c(Cl)c3c4c(nc(OCC5CCN(S(C)(=O)=O)CC5)nc4c2F)N([C@H](C)c2cccnc2N)CCO3)c1C(F)(F)F` (atropisomer, axis not shown) [Example 148, 6-((R)-4-((R)-1-(2-aminopyridin-3-yl)ethyl)-8-chloro-10-fluoro-2-((1-(methylsulfonyl)piperidin-4-yl)methoxy)-5,6-dihydro-4H-[1,4]oxazepino[5,6,7-de]quinazolin-9-yl)-4-methyl-5-(trifluoromethyl)pyridin-2-amine], the IC50 against KRas worked out at 3.6 nM; in the experiment with SW480 cells, 410 nM; on KRas(G12V) it was 1.1 nM; in the experiment on PC-9 cells, 9600 nM.

As for `COc1nc2c3c(c(Cl)c(-c4nc(N)cc(C)c4C(F)(F)F)c(F)c3n1)OCCN2[C@H](C)c1cccnc1N` (atropisomer, axis not shown) [Example 155, 6-((R)-4-((R)-1-(2-aminopyridin-3-yl)ethyl)-8-chloro-10-fluoro-2-methoxy-5,6-dihydro-4H-[1,4]oxazepino[5,6,7-de]quinazolin-9-yl)-4-methyl-5-(trifluoromethyl)pyridin-2-amine], the IC50 at KRas is 2.5 nM; in the experiment on SW480 cells, 220 nM; on KRas(G12V), 0.45 nM; with PC-9 cells, 10000 nM.

In the case of `Cc1cc(N)nc(-c2c(Cl)c3c4c(nc(OCC56COC(CF)(C5)C6)nc4c2F)N([C@H](C)c2cccnc2N)CCO3)c1C(F)(F)F` [Example 154, 6-((R)-4-((R)-1-(2-aminopyridin-3-yl)ethyl)-8-chloro-10-fluoro-2-((1-(fluoromethyl)-2-oxabicyclo[2.1.1]hexan-4-yl)methoxy)-5,6-dihydro-4H-[1,4]oxazepino[5,6,7-de]quinazolin-9-yl)-4-methyl-5-(trifluoromethyl)pyridin-2-amine], the IC50 against KRas was 1.1 nM; in the experiment on SW480 cells, 91 nM; on KRas(G12V), 0.48 nM; in the experiment on PC-9 cells, 14000 nM.

As to `CCO[C@H]1CN2CCC[C@@]2(COc2nc3c4c(c(Cl)c(-c5nc(N)cc(C)c5C(F)(F)F)c(F)c4n2)OCCN3[C@H](C)c2cccnc2N)C1` (atropisomer, axis not shown; (aS)) [Example 89, 6-((R)-4-((R)-1-(2-aminopyridin-3-yl)ethyl)-8-chloro-2-(((2R,7aS)-2-ethoxytetrahydro-1H-pyrrolizin-7a(5H)-yl)methoxy)-10-fluoro-5,6-dihydro-4H-[1,4]oxazepino[5,6,7-de]quinazolin-9-yl)-4-methyl-5-(trifluoromethyl)pyridin-2-amine], the 50% inhibitory concentration (IC50) at KRas worked out at 0.17 nM; with SW480 cells, 7.2 nM; against KRas(G12V), 0.075 nM; with PC-9 cells, 2400 nM.

As to `Cc1cc(N)nc(-c2c(Cl)c3c4c(nc(OCC5CCCN(C)C5)nc4c2F)N([C@H](C)c2cccnc2N)CCO3)c1C(F)(F)F` (stereo partly drawn) [Example 137, 6-((9R)-4-((R)-1-(2-aminopyridin-3-yl)ethyl)-8-chloro-10-fluoro-2-((1-methylpiperidin-3-yl)methoxy)-5,6-dihydro-4H-[1,4]oxazepino[5,6,7-de]quinazolin-9-yl)-4-methyl-5-(trifluoromethyl)pyridin-2-amine], the IC50 came to 0.159 nM against KRas, 140 nM in the experiment with SW480 cells, 0.07 nM against KRas(G12V) and 1100 nM in the experiment with PC-9 cells.

Take `Nc1ncccc1CN1CCOc2c(Cl)c(-c3cccc(CO)c3)cc3nc(OC[C@@]45CCCN4C[C@H](F)C5)nc1c23` [Example 64, (3-(4-((2-aminopyridin-3-yl)methyl)-8-chloro-2-(((2R,7aS)-2-fluorotetrahydro-1H-pyrrolizin-7a(5H)-yl)methoxy)-5,6-dihydro-4H-[1,4]oxazepino[5,6,7-de]quinazolin-9-yl)phenyl)methanol]: the IC50 at KRas is 2700 nM; with SW480 cells, 17000 nM; at KRas(G12V), 290 nM; in the experiment on PC-9 cells, 5400 nM.

Regarding `Cc1cc(N)nc(-c2c(Cl)c3c4c(nc(OC[C@@H]5C[C@@H]6C[N@@]5CCO6)nc4c2F)N([C@H](C)c2cccnc2N)CCO3)c1C(F)(F)F` (atropisomer, axis not shown) [Example 92a, 6-((R)-2-(((1R,5R,7S)-4-oxa-1-azabicyclo[3.2.1]octan-7-yl)methoxy)-4-((R)-1-(2-aminopyridin-3-yl)ethyl)-8-chloro-10-fluoro-5,6-dihydro-4H-[1,4]oxazepino[5,6,7-de]quinazolin-9-yl)-4-methyl-5-(trifluoromethyl)pyridin-2-amine], the concentration for half-maximal inhibition (IC50) against KRas was 0.0648 nM; in the experiment on SW480 cells, 37 nM; on KRas(G12V), 0.07 nM; with PC-9 cells it was 1800 nM.

Take `Cc1cc(N)nc(-c2c(Cl)c3c4c(nc(OCC5CCOCC5)nc4c2F)N([C@H](C)c2cccnc2N)CCO3)c1C(F)(F)F` (atropisomer, axis not shown) [Example 152, 6-((R)-4-((R)-1-(2-aminopyridin-3-yl)ethyl)-8-chloro-10-fluoro-2-((tetrahydro-2H-pyran-4-yl)methoxy)-5,6-dihydro-4H-[1,4]oxazepino[5,6,7-de]quinazolin-9-yl)-4-methyl-5-(trifluoromethyl)pyridin-2-amine]: the 50% inhibitory concentration (IC50) against KRas was determined as 2.3 nM; in the experiment with SW480 cells, 180 nM; on KRas(G12V), 0.75 nM; in the experiment on PC-9 cells it was 5600 nM.

Regarding `Cc1cc(N)nc(-c2c(Cl)c3c4c(nc(OC[C@@]56CCCN5C[C@H](F)C6)nc4c2F)N([C@@H]2CCCc4ccnc(N)c42)CCO3)c1C(F)(F)F` (atropisomer, axis not shown; (aS)) [Example 65a, (R)-8-((R)-9-(6-amino-4-methyl-3-(trifluoromethyl)pyridin-2-yl)-8-chloro-10-fluoro-2-(((2R,7aS)-2-fluorotetrahydro-1H-pyrrolizin-7a(5H)-yl)methoxy)-5,6-dihydro-4H-[1,4]oxazepino[5,6,7-de]quinazolin-4-yl)-5,6,7,8-tetrahydroisoquinolin-1-amine], the half-inhibitory concentration (IC50) against KRas is 0.25 nM; in the experiment on SW480 cells, 2.6 nM; on KRas(G12V) it was 0.1 nM; in the experiment with PC-9 cells, 940 nM.

Regarding `Cc1cc(N)nc(-c2c(Cl)c3c4c(nc(OCC5CCN(C)C5)nc4c2F)N([C@H](C)c2cccnc2N)CCO3)c1C(F)(F)F` (stereo partly drawn) [Example 134, 6-((9R)-4-((R)-1-(2-aminopyridin-3-yl)ethyl)-8-chloro-10-fluoro-2-((1-methylpyrrolidin-3-yl)methoxy)-5,6-dihydro-4H-[1,4]oxazepino[5,6,7-de]quinazolin-9-yl)-4-methyl-5-(trifluoromethyl)pyridin-2-amine], the IC50 against KRas stood at 0.21 nM; with SW480 cells, 590 nM; on KRas(G12V), 0.08 nM; with PC-9 cells, 1600 nM.

Turning to `Cc1cc(N)nc(-c2c(Cl)c3c4c(nc(OC[C@@H]5C[C@]6(CN5C)CC6(F)F)nc4c2F)N([C@H](C)c2cccnc2N)CCO3)c1C(F)(F)F` (atropisomer, axis not shown) [Example 68, 6-((R)-4-((R)-1-(2-aminopyridin-3-yl)ethyl)-8-chloro-2-(((3R,6S)-1,1-difluoro-5-methyl-5-azaspiro[2.4]heptan-6-yl)methoxy)-10-fluoro-5,6-dihydro-4H-[1,4]oxazepino[5,6,7-de]quinazolin-9-yl)-4-methyl-5-(trifluoromethyl)pyridin-2-amine], the half-maximal inhibitory concentration (IC50) came out at 0.31 nM at KRas, 11 nM with SW480 cells, 0.1 nM against KRas(G12V) and 1800 nM in the experiment with PC-9 cells.

`Cc1cc(N)nc(-c2c(Cl)c3c4c(nc(OC[C@]56CCN5CC(F)(F)C6)nc4c2F)N([C@H](C)c2ccnnc2N)CCO3)c1C(F)(F)F` (atropisomer, axis not shown) [Example 77b, 4-((R)-1-((R)-9-(6-amino-4-methyl-3-(trifluoromethyl)pyridin-2-yl)-8-chloro-2-(((R)-3,3-difluoro-1-azabicyclo[3.2.0]heptan-5-yl)methoxy)-10-fluoro-5,6-dihydro-4H-[1,4]oxazepino[5,6,7-de]quinazolin-4-yl)ethyl)pyridazin-3-amine]: the IC50 against KRas was 0.34 nM; with SW480 cells, 65 nM; against KRas(G12V), 0.13 nM; in the experiment with PC-9 cells it was 20000 nM.

Take `Cc1cc(N)nc(-c2c(Cl)c3c4c(nc(OC[C@@]56CCCN5C[C@H](F)C6)nc4c2F)N([C@H](C)c2cncc(N)c2)CCO3)c1C(F)(F)F` (atropisomer, axis not shown; (aS)) [Example 45, (R)-6-(4-((S)-1-(5-aminopyridin-3-yl)ethyl)-8-chloro-10-fluoro-2-(((2R,7aS)-2-fluorotetrahydro-1H-pyrrolizin-7a(5H)-yl)methoxy)-5,6-dihydro-4H-[1,4]oxazepino[5,6,7-de]quinazolin-9-yl)-4-methyl-5-(trifluoromethyl)pyridin-2-amine]: the half-maximal inhibitory concentration (IC50) came out at 0.27 nM against KRas, 50 nM in the experiment with SW480 cells, 0.23 nM against KRas(G12V) and 6000 nM with PC-9 cells.
